# Laboratory results taken from ChEMBL document CHEMBL3885861, “Open TG-GATES”.
# Organism: Rattus norvegicus
# Assay: Open TG-GATES - Regimen: Daily Repeat
# Type: toxicity, organism-based, Sprague-Dawley
# Design: regimen Daily Repeat, gender Male, age 6 weeks
# Conditions: in vivo, po, 100 mg/kg, route gavage, dose level Middle; for APTT / Bas / Eos / Fbg / Hb / Ht / Lym / MCH / MCHC / MCV / Mono / Neu / PT / Plat / RBC / Ret / WBC: tissue Blood; for KIDNEY_L / KIDNEY_R / KIDNEY_TOTAL: tissue Kidney; for LIVER: tissue Liver; for A/G / ALP / ALT / AST / BUN / CRE / Ca / Cl / DBIL / GLC / IP / K / LDH / Na / PL / RALB / TBIL / TC / TG / TP / gamma-GTP: tissue Plasma
compound,measurement,setting,value
Brc1ccccc1 [BROMOBENZENE],TERMINAL_BW,"72 h, time 3 day",207.5 g
same,APTT,"72 h, time 3 day",14.7 s
same,Bas,"72 h, time 3 day",0.2%
same,Eos,"72 h, time 3 day",1%
same,Fbg,"72 h, time 3 day",300.2 mg/dL
same,Hb,"72 h, time 3 day",12.9 g/dL
same,Ht,"72 h, time 3 day",38.4%
same,Lym,"72 h, time 3 day",74.2%
same,MCH,"72 h, time 3 day",20.5 pg
same,MCHC,"72 h, time 3 day",33.5%
same,MCV,"72 h, time 3 day",61.1 fL
same,Mono,"72 h, time 3 day",3.5%
same,Neu,"72 h, time 3 day",20.5%
same,PT,"72 h, time 3 day",11.8 s
same,Plat,"72 h, time 3 day",118.8 x10_4/uL
same,RBC,"72 h, time 3 day",629 x10_4/ul
same,Ret,"72 h, time 3 day",6.2%
same,WBC,"72 h, time 3 day",95.6 x10_2/uL
same,KIDNEY_L,"72 h, time 3 day",0.9 g
same,KIDNEY_R,"72 h, time 3 day",0.9 g
same,KIDNEY_TOTAL,"72 h, time 3 day",1.8 g
same,LIVER,"72 h, time 3 day",11.6 g
same,A/G,"72 h, time 3 day",0.9
same,ALP,"72 h, time 3 day",1811.5 IU/L
same,ALT,"72 h, time 3 day",56.5 IU/L
same,AST,"72 h, time 3 day",78.5 IU/L
same,BUN,"72 h, time 3 day",13 mg/dL
same,CRE,"72 h, time 3 day",0.2 mg/dL
same,Ca,"72 h, time 3 day",10.4 mg/dL
same,Cl,"72 h, time 3 day",106 meq/L
same,DBIL,"72 h, time 3 day",0.015 mg/dL
same,GLC,"72 h, time 3 day",179.8 mg/dL
same,IP,"72 h, time 3 day",6.4 mg/dL
same,K,"72 h, time 3 day",4.1 meq/L
same,LDH,"72 h, time 3 day",101.8 IU/L
same,Na,"72 h, time 3 day",142.2 meq/L
same,PL,"72 h, time 3 day",166.8 mg/dL
same,RALB,"72 h, time 3 day",2.7 g/dL
same,TBIL,"72 h, time 3 day",0.0575 mg/dL
same,TC,"72 h, time 3 day",88 mg/dL
same,TG,"72 h, time 3 day",66 mg/dL
same,TP,"72 h, time 3 day",5.7 g/dL
same,gamma-GTP,"72 h, time 3 day",1.2 IU/L
same,TERMINAL_BW,"[…], time 7 day",245.7 g
same,TERMINAL_BW,"[…], time 14 day",288.5 g
same,TERMINAL_BW,"[…], time 28 day",381.1 g
same,APTT,"[…], time 7 day",13.4 s
same,Bas,"[…], time 7 day",0%
same,Eos,"[…], time 7 day",1%
same,Fbg,"[…], time 7 day",317.4 mg/dL
same,Hb,"[…], time 7 day",13.3 g/dL
same,Ht,"[…], time 7 day",39.3%
same,Lym,"[…], time 7 day",75.8%
same,MCH,"[…], time 7 day",21.2 pg
same,MCHC,"[…], time 7 day",33.9%
same,MCV,"[…], time 7 day",62.5 fL
same,Mono,"[…], time 7 day",3%
same,Neu,"[…], time 7 day",19.8%
same,PT,"[…], time 7 day",12.2 s
same,Plat,"[…], time 7 day",112.7 x10_4/uL
same,RBC,"[…], time 7 day",629 x10_4/ul
same,Ret,"[…], time 7 day",6.9%
same,WBC,"[…], time 7 day",98.3 x10_2/uL
same,APTT,"[…], time 14 day",16.8 s
same,Bas,"[…], time 14 day",0%
same,Eos,"[…], time 14 day",1%
same,Fbg,"[…], time 14 day",326.4 mg/dL
same,Hb,"[…], time 14 day",14.2 g/dL
same,Ht,"[…], time 14 day",40.9%
same,Lym,"[…], time 14 day",78%
same,MCH,"[…], time 14 day",20.7 pg
same,MCHC,"[…], time 14 day",34.7%
same,MCV,"[…], time 14 day",59.8 fL
same,Mono,"[…], time 14 day",2.8%
same,Neu,"[…], time 14 day",18.2%
same,PT,"[…], time 14 day",11.9 s
same,Plat,"[…], time 14 day",113.2 x10_4/uL
same,RBC,"[…], time 14 day",685.4 x10_4/ul
same,Ret,"[…], time 14 day",4.6%
same,WBC,"[…], time 14 day",74.5 x10_2/uL
same,APTT,"[…], time 28 day",17.1 s
same,Bas,"[…], time 28 day",0%
same,Eos,"[…], time 28 day",1%
same,Fbg,"[…], time 28 day",304.8 mg/dL
same,Hb,"[…], time 28 day",14.6 g/dL
same,Ht,"[…], time 28 day",41.5%
same,Lym,"[…], time 28 day",73.8%
same,MCH,"[…], time 28 day",19.3 pg
same,MCHC,"[…], time 28 day",35.1%
same,MCV,"[…], time 28 day",55.1 fL
same,Mono,"[…], time 28 day",3%
same,Neu,"[…], time 28 day",21.2%
same,PT,"[…], time 28 day",12.9 s
same,Plat,"[…], time 28 day",109.2 x10_4/uL
same,RBC,"[…], time 28 day",754.6 x10_4/ul
same,Ret,"[…], time 28 day",2.6%
same,WBC,"[…], time 28 day",103.2 x10_2/uL
same,KIDNEY_L,"[…], time 7 day",1.1 g
same,KIDNEY_R,"[…], time 7 day",1.1 g
same,KIDNEY_TOTAL,"[…], time 7 day",2.2 g
same,KIDNEY_L,"[…], time 14 day",1.1 g
same,KIDNEY_R,"[…], time 14 day",1.1 g
same,KIDNEY_TOTAL,"[…], time 14 day",2.2 g
same,KIDNEY_L,"[…], time 28 day",1.4 g
same,KIDNEY_R,"[…], time 28 day",1.4 g
same,KIDNEY_TOTAL,"[…], time 28 day",2.7 g
same,LIVER,"[…], time 7 day",12.8 g
same,LIVER,"[…], time 14 day",13.7 g
same,LIVER,"[…], time 28 day",17 g
same,A/G,"[…], time 7 day",0.8
same,ALP,"[…], time 7 day",1614.4 IU/L
same,ALT,"[…], time 7 day",43.4 IU/L
same,AST,"[…], time 7 day",65 IU/L
same,BUN,"[…], time 7 day",14.8 mg/dL
same,CRE,"[…], time 7 day",0.2 mg/dL
same,Ca,"[…], time 7 day",11.1 mg/dL
same,Cl,"[…], time 7 day",105.2 meq/L
same,DBIL,"[…], time 7 day",0.014 mg/dL
same,GLC,"[…], time 7 day",193.2 mg/dL
same,IP,"[…], time 7 day",7.1 mg/dL
same,K,"[…], time 7 day",4 meq/L
same,LDH,"[…], time 7 day",99.8 IU/L
same,Na,"[…], time 7 day",143 meq/L
same,PL,"[…], time 7 day",149 mg/dL
same,RALB,"[…], time 7 day",2.7 g/dL
same,TBIL,"[…], time 7 day",0.048 mg/dL
same,TC,"[…], time 7 day",71.6 mg/dL
same,TG,"[…], time 7 day",84.8 mg/dL
same,TP,"[…], time 7 day",5.9 g/dL
same,gamma-GTP,"[…], time 7 day",1 IU/L
same,A/G,"[…], time 14 day",0.8
same,ALP,"[…], time 14 day",1557.8 IU/L
same,ALT,"[…], time 14 day",39.6 IU/L
same,AST,"[…], time 14 day",63.4 IU/L
same,BUN,"[…], time 14 day",14.6 mg/dL
same,CRE,"[…], time 14 day",0.2 mg/dL
same,Ca,"[…], time 14 day",10.9 mg/dL
same,Cl,"[…], time 14 day",107 meq/L
same,DBIL,"[…], time 14 day",0.008 mg/dL
same,GLC,"[…], time 14 day",185.6 mg/dL
same,IP,"[…], time 14 day",5.9 mg/dL
same,K,"[…], time 14 day",4 meq/L
same,LDH,"[…], time 14 day",56.6 IU/L
same,Na,"[…], time 14 day",143.6 meq/L
same,PL,"[…], time 14 day",150.4 mg/dL
same,RALB,"[…], time 14 day",2.8 g/dL
same,TBIL,"[…], time 14 day",0.046 mg/dL
same,TC,"[…], time 14 day",71.2 mg/dL
same,TG,"[…], time 14 day",100.6 mg/dL
same,TP,"[…], time 14 day",6.1 g/dL
same,gamma-GTP,"[…], time 14 day",1 IU/L
same,A/G,"[…], time 28 day",0.8
same,ALP,"[…], time 28 day",1105.2 IU/L
same,ALT,"[…], time 28 day",40.8 IU/L
same,AST,"[…], time 28 day",61.8 IU/L
same,BUN,"[…], time 28 day",15.4 mg/dL
same,CRE,"[…], time 28 day",0.3 mg/dL
same,Ca,"[…], time 28 day",10.6 mg/dL
same,Cl,"[…], time 28 day",105.6 meq/L
same,DBIL,"[…], time 28 day",0.016 mg/dL
same,GLC,"[…], time 28 day",198.8 mg/dL
same,IP,"[…], time 28 day",5.8 mg/dL
same,K,"[…], time 28 day",3.9 meq/L
same,LDH,"[…], time 28 day",86.2 IU/L
same,Na,"[…], time 28 day",142.4 meq/L
same,PL,"[…], time 28 day",140.8 mg/dL
same,RALB,"[…], time 28 day",2.8 g/dL
same,TBIL,"[…], time 28 day",0.04 mg/dL
same,TC,"[…], time 28 day",72.8 mg/dL
same,TG,"[…], time 28 day",108.8 mg/dL
same,TP,"[…], time 28 day",6.3 g/dL
same,gamma-GTP,"[…], time 28 day",1 IU/L
